Series [1] in a line: DPPH radical scavenging assay (in vitro). To be noted: 0.1 mM DPPH in MeOH, 30 min dark, room temperature, 540 nm.
The next series has as its target T1, BACE-1 (Homo sapiens, UniProt P56817).
T1 construct: purchased PanVera (Madison, WI, USA) / Thermo Fisher Scientific P2985
The series is described as follows: BACE-1 FRET inhibition assay. Type of series: biochemical. To be noted: FRET kit, 60 min room temperature, triplicate, tested up to 50 µM.

Series [2] relates to RAW 264.7 cells. As to the kind of experiment: Nitric oxide production (Griess reagent) in LPS-stimulated cells. The conditions noted are these: RAW 264.7, 1 h pretreatment, LPS 0.5 μg/mL 24 h. Type of series: cell-based, murine.
Protocol: (§1) The macrophage-like murine cell line RAW 264.7 (KCLB number 40071; Korean Cell Line Bank, Seoul, Korea) was cultured in Dulbecco’s Modified Eagle Medium (DMEM, Sigma-Aldrich, St. Louis, MO, USA) supplemented with 10% heat-inactivated fetal bovine serum (FBS, Invitrogen, Burlington, ON, Canada) and 1% (w/v) antibiotic–antimycotic solution (Invitrogen, Grand Island, NY, USA) at 5% CO2 and 37 °C.
Nitrite accumulation was used as an indicator of NO production in the medium, and the nitrite level was determined by assaying the culture supernatants for nitrite using the Griess reagent (1% sulfanilamide, 0.1% N-(1-naphathyl)-ethylenediamine dihydrochloride, and 5% phosphoric acid). […] Then, 100 μL of cell culture supernatants were mixed with 100 μL of Griess reagent in a 96-well plate. Sodium nitrite was used to generate a standard curve and the concentration of nitrite was then measured by the absorbance at 540 nm using a microplate reader. All determinations were performed in triplicate.
For series [3], the system named is RAW 264.7 cells. As to the kind of experiment: MTT cytotoxicity assay. The class given is cell-based, murine. The conditions noted are these: RAW 264.7, 24 h.
Protocol: as §1
Cell cytotoxicity was determined by an MTT (3-(4,5)-dimethylthiazol-2-yl-2,5-diphenyltetrazolium bromide, Amresco, Solon, OH, USA) colorimetric assay. […] After incubation with test substances, MTT solutions (5 μL of a 5 mg/mL concentration in PBS) were added to the wells and incubated for 4 h at 37 °C. Then, treated with 100 μL of fresh DMSO to dissolve the crystals for 10 min, the cells were detected under a microplate reader (Thermo Scientific Inc., San Diego, CA, USA) to measure the absorbance at 570 nm. Relative cell viability was calculated by comparing the absorbance of the untreated control group. All experiments were performed in triplicate.
Series [4] in a line: Stability in aqueous solution by HPLC purity. Type of series: physicochemical. To be noted: 10 mM in water, room temperature, HPLC UV 254 nm; ramalin started at 98%. An excerpt:
Therefore, to improve its stability and BBB penetration capacity, its structure was modified by replacing the phenolic hydroxyl groups at position two with either a methyl group or a fluorine atom and by changing their positions. Thus, several derivatives were obtained. Specifically, RA-2Me, RA-3Me, and RA-4Me were synthesized by changing the position of the methyl group, which is an electron-donating group, and RA-25Me and RA-34Me, with two methyl groups on the phenyl ring, were synthesized by introducing an extra methyl group. To investigate the effect of fluorine atoms, which are electron-withdrawing as opposed to the methyl group, RA-2F, RA-4F, RA-24F, and RA-pentafluoride (PF) were also successfully synthesized. […] AD-related therapeutic agents are required to penetrate the BBB and reach their target. […] Given that ramalin and its derivatives are water-soluble low-molecular-weight compounds and that their lipophilicities and hydrophilicities balance out, their influence on AlogP, which indicates lipophilicity, was not significant. Additionally, given their PSA values (90 Å^2 < PSA < 140 Å^2), they are considered to be advantageous in terms of BBB penetration.

Molecules are shown by their SMILES. “Also recorded” adds a separate entry of the source.

T1 sequence (P56817 46-501): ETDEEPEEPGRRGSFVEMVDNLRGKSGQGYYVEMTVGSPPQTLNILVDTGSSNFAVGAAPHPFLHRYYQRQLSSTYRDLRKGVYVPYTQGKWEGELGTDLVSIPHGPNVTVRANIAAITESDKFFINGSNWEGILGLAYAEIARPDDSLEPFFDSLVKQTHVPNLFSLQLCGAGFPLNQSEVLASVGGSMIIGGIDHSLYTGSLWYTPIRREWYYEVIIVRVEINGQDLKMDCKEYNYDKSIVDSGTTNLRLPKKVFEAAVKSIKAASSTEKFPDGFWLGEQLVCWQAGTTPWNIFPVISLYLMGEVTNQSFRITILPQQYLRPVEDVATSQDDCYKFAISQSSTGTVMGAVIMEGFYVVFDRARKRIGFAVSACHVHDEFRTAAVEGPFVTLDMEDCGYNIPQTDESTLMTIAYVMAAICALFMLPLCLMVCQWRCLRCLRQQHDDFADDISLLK
Protocol for BACE-1: The experiments were each performed in triplicates for all of the compounds.
A BACE-1 inhibition assay was conducted using a β-Secretase FRET kit (BACE-1, Thermo Fisher Sientific, San Diego, CA, USA) according to manufacturer instructions. […] The sample was diluted further in assay buffer (final concentrations of 50, 25, 12.5, 6.25, 3.12, 1.56, 0.78, 0.39, 0.2, and 0.1 µM in each well) and black 96-well microplates were mixed with 10 µL of BACE-1 substrate. Then, 10 µL of 3 × BACE-1 enzyme was added to each well to start the reaction. Plates were incubated at room temperature in the dark for 60 min. After incubation, 10 µL of 2.5 mM sodium acetate was added to each well to stop the reaction. Finally, multiwell spectrofluorometer instruments were used for a multimode plate reader (Multistkan^TM GO, Thermo Scientific, Waltham, MA, USA) at an excitation wavelength of 545 nm and an emission wavelength of 585 nm. The half-maximal inhibitory concentration (IC50) was calculated by plotting the obtained relative fluorescence unit per hour (RFU/h) against the logarithmic of the inhibitor concentration. All determinations were performed in triplicate.

Regarding `N[C@@H](CCC(=O)NNc1ccccc1F)C(=O)O` [RA-2F, N^5-((2-Fluorophenyl)amino)-L-glutamine], the IC50 in series [1] was 4.42 µM; on BACE-1, 18.8 ± 3.86 µM. Besides, the “NO inhibitory (anti-inflammatory) activity” value (“NO inhibitory” below) in the series on RAW 264.7 cells [2] was “concentration-dependent NO inhibition”.
The corresponding values for `Cc1ccccc1NNC(=O)CC[C@H](N)C(=O)O` [RA-2Me, N^5-(o-Tolylamino)-L-glutamine] are 2.79 µM, 15 ± 4.92 µM and “weak anti-inflammatory effects”.
For `Cc1cccc(NNC(=O)CC[C@H](N)C(=O)O)c1` [RA-3Me, N^5-(m-Tolylamino)-L-glutamine], the IC50 came to 5.3 µM in series [1] and 22.5 ± 0.69 µM against BACE-1. Further, the “NO inhibitory” value with RAW 264.7 cells [2] is recorded as “weak anti-inflammatory effects”.
For `N[C@@H](CCC(=O)NNc1ccc(F)cc1)C(=O)O` [RA-4F, N^5-((4-Fluorophenyl)amino)-L-glutamine], the results for the IC50 (in series [1]; on BACE-1) were 4.16 µM and 20.1 ± 4.78 µM, respectively. For the same compound, in the series with RAW 264.7 cells [2], the “NO inhibitory” value is “concentration-dependent NO inhibition”.
The corresponding values for `Cc1ccc(NNC(=O)CC[C@H](N)C(=O)O)cc1` [RA-4Me, N^5-(p-Tolylamino)-L-glutamine] are 3.91 µM, 13 ± 1.62 µM and “weak anti-inflammatory effects”.
As to `N[C@@H](CCC(=O)NNc1ccc(F)cc1F)C(=O)O` [RA-24F, N^5-((2,4-Difluorophenyl)amino)-L-glutamine], inhibition in series [1] was half-maximal at 5.32 µM (IC50). Besides, the “Cytotoxicity (cell viability, MTT)” value in the series on RAW 264.7 cells [3] is given as “without cytotoxicity”. Besides, in the series with RAW 264.7 cells [2], the “NO inhibitory” value is given as “concentration-dependent NO inhibition; also recorded: stronger anti-inflammatory effect than ramalin”.
Turning to `Cc1ccc(C)c(NNC(=O)CC[C@H](N)C(=O)O)c1` [RA-25Me, N^5-((2,5-Dimethylphenyl)amino)-L-glutamine], the IC50 in series [1] came to 4.5 µM; on BACE-1, 9.81 ± 1.21 µM. Further, in the series with RAW 264.7 cells [2], the “NO inhibitory” value is “concentration-dependent NO inhibition”.
The corresponding values for `Cc1ccc(NNC(=O)CC[C@H](N)C(=O)O)cc1C` [RA-34Me, N^5-((3,4-Dimethylphenyl)amino)-L-glutamine] are 4.46 µM, 13.1 ± 1.52 µM and “concentration-dependent NO inhibition”.
`N[C@@H](CCC(=O)NNc1c(F)c(F)c(F)c(F)c1F)C(=O)O` [RA-PF, N^5-((Perfluorophenyl)amino)-L-glutamine] showed an IC50 against BACE-1 of 14.6 ± 6.08 µM. The “NO inhibitory” value in the series with RAW 264.7 cells [2] is listed as “concentration-dependent NO inhibition”.
On to `NC(CCC(=O)NNc1ccccc1O)C(=O)O` (stereo not drawn) [Ramalin, ramalin], for which the “Purity after 14 h in water” value in series [4] is 83%.

The record behind these values is publication PMC8588271 (Molecules, 2021).
